# Legend:
# [1] = Determination of the ratios of enantiomers of chiral metabolites in human milk on chiral GC capillaries; assay type: in vivo; conditions: for Percentage E1: B-2b, B-2c of the same parent
# Description: The separation of the chiral metabolites of 1,8-cineole was successfully achieved using different β- or γ-cyclodextrin-based stationary phases (Rt-bDEXsa, Rt-bDEXse, Rt-bDEXsm and Rt-yDEXsa) for gas chromatographic analysis. Table S1, in the supplementary material, lists the usable separation phases and the respective retention indices (determined according to van den Dool and Kratz) for each pair of enantiomers. It was therefore decided to use the following capillaries for the analysis of the human milk samples: Rt-bDEXsm for separation of 2,3-dehydro-, α2,3-epoxy-, 2-oxo-, 3-oxo- and 9-hydroxy-1,8-cineole, and Rt-yDEXsa for separation of α2-hydroxy-, α3-hydroxy- and β2-hydroxy-1,8-cineole, under the GC conditions described in the experimental section.
# For GC-MS analyses, an Agilent MSD quadrupole system (GC 7890A with MSD 5975C, Agilent Technologies, Waldbronn, Germany) coupled with a CIS 4C (cooled injection system) and an MPS 2 auto-sampler (Gerstel GmbH & Co. KG, Duisburg, Germany) were used. Data collection and analysis were performed with the MSD ChemStation E.02.00.493 (Agilent Technologies, Inc.) software. Quantification experiments were carried out on DB-FFAP and DB-5 capillaries (30 m length, 0.25 mm inner diameter, 0.25 µm film thickness, Agilent J&W GC Columns, USA), and for monitoring of the ratio of enantiomers the chiral capillaries Rt-bDEXsa, Rt-bDEXse, Rt-bDEXsm and Rt-yDEXsa (30 m length, 0.32 mm inner diameter, 0.25 µm film thickness, Restek GmbH, Bad Homburg, Germany) were utilised. Pre-columns of uncoated, deactivated fused silica (0.53 mm inner diameter, 0.5 to 3.5 m length) were used to ensure that no potentially present low-volatile residues could contaminate the analytical capillaries. The temperature programme of the column oven was as follows: 40 °C for 2 min, 4 °C/min up to 170 °C, 40 °C/min up to 230 °C (Rt-DEX capillaries), 240 °C (DB-FFAP) and 250 °C (DB-5), respectively, and hold time at end temperature of 5 to 10 min. As carrier gas, helium was used at a flow rate of 1.3 mL/min (velocity 41.1 cm/s). Injection of 1 or 2 µL was performed by the auto-sampler.
# For the separation of the pairs of enantiomers of the chiral metabolites of 1,8-cineole, four different capillaries (Rt-bDEXsa, Rt-bDEXse, Rt-bDEXsm, and Rt-yDEXsa) were evaluated for optimisation of the peak-to-peak resolution of the enantiomers by injecting a mixture of all the metabolites in a dichloromethane solution and by varying the heating rate. Besides the separation of each pair of enantiomers from each other, it was also important to confirm that no other metabolite coeluted with any one of the enantiomers, because the milk samples would most probably contain all metabolites. Moreover, the separation conditions for the mixture of reference substances were also tested on some human milk sample extracts and modified accordingly, where necessary, to avoid coelution with interfering matrix compounds.
# For calculation of the ratio of enantiomers (that is, the relative abundance of each enantiomer to the not separated mixture of enantiomers), the peak area of each enantiomer was divided by the sum of the peak areas of both enantiomers and multiplied by 100. With the known concentrations of the chiral metabolites in each milk sample, the absolute concentration of each single enantiomer was also calculated by multiplying the concentration with the respective percentage.
# [2] = set-up: method as in PMID 20425757; conditions: one volunteer, sage tea, overall intake 1.02 mg 1,8-cineole; cited from earlier work
# [3] = Quantification of 1,8-cineole metabolites in human milk (SAFE, GC-MS, internal standard and matrix calibration) after oral intake of 100 mg 1,8-cineole; assay type: in vivo; conditions: for Absolute concentration in human milk: single determination
# Description: Human milk samples were provided voluntarily by breastfeeding mothers after intake of the non-prescription pharmaceutical Soledum® (Klosterfrau Healthcare Group, Cologne, Germany). Before the beginning of the study, the participants were informed verbally, as well as in written form, about the study procedure and purpose and they were told that withdrawing from the study was possible at any time without giving any reason. All volunteers gave written consent to the analysis of their milk samples and anonymous publication of the resulting data. The Ethical Committee of the Medical Faculty, University Erlangen-Nuremberg, approved the experimental procedures. Each participant was handed a copy of the Soldeum® package instructions and was advised to read it before capsule intake. They were also advised to withdraw from the study if any negative reactions such as medication allergies or interactions with other drugs they were taking were to be expected. Additionally, the volunteers were informed verbally about potential effects of the pharmaceutical preparation on breastfeeding, i.e. the risk of an altered milk flavour and rejection of the milk by the nursling. Accordingly, if this would happen, the mothers were recommended to feed their babies with stored human milk or formula milk products.
# The milk donors were between the ages of 29 and 40 years (mean 34 years). During their participation in the study, their breast milk production had to be normal and in excess of their infants' needs, with no breast infections and no overall medical complaints present. Five participants were primiparous, three were multiparous and the breast milk samples were from 19 weeks to 19 months postpartum. For sampling, either electrical or mechanical breast pumps or manual expression techniques were applied, resulting in sample volumes between 10 and 100 mL. The samples were immediately subjected to sample preparation after a maximum storage time of five hours at 7 °C or were stored in a freezer at −20 °C for up to five days.
# The participating volunteers were asked to ingest one Soledum® capsule, containing 100 mg 1,8-cineole, and to wait until they themselves or another person began to notice the eucalyptus-like odour on their breath. […] The donors were instructed to keep notes on the dates of capsule intake, first eucalyptus-like odour on their breath and exact sampling time. Unfortunately it was difficult for some mothers to detect the smell on their breath so they expressed the samples after some time without having noticed the smell, or reported having been unsure about the smell. […] Some of the donors repeated the whole experiment and some expressed more than one sample after the capsule intake, resulting in 14 samples in total, from 8 different mothers.
# Extracts containing the volatile fraction of the human milk samples were prepared by Solvent Assisted Flavour Evaporation (SAFE) after addition of deuterated 1,8-cineole as internal standard (solution in dichloromethane), followed by 10 min of stirring, then another addition of dichloromethane (50% v/v), and 30 min of stirring. The resulting stable phase was distilled in the SAFE-apparatus at 50 °C and approximately 1x10^−4 mbar. The volatile fraction of the samples was frozen with liquid nitrogen. After thawing, it consisted of two phases, formed by the dichloromethane and by the water out of the milk. The water phase was extracted three times with dichloromethane, and the solvent phases were combined and dried over anhydrous Na2SO4. Finally the sample extracts were concentrated by microdistillation according to Bemelmans at 50 °C to a total volume of 50 to 200 μL.
# For GC-MS analyses, an Agilent MSD quadrupole system (GC 7890A with MSD 5975C, Agilent Technologies, Waldbronn, Germany) coupled with a CIS 4C (cooled injection system) and an MPS 2 auto-sampler (Gerstel GmbH & Co. KG, Duisburg, Germany) were used. […]
# [4] = set-up: method as in doi:10.1002/cplu.201200253; conditions: urine after 100 mg 1,8-cineole; cited from earlier work
# [5] = sample A-1b (odour yes), oral 100 mg 1,8-cineole, values given with (<x) are approximations
# [6] = sample B-1 (odour yes), oral 100 mg 1,8-cineole, values given with (<x) are approximations
# [7] = sample B-2a (no odour), oral 100 mg 1,8-cineole
# [8] = sample B-2b (odour yes), oral 100 mg 1,8-cineole, values given with (<x) are approximations
# [9] = sample B-2c (no odour), oral 100 mg 1,8-cineole
# [10] = sample D-2 (odour yes), oral 100 mg 1,8-cineole, values given with (<x) are approximations
# [11] = sample E-2 (odour yes), oral 100 mg 1,8-cineole, values given with (<x) are approximations
# [12] = sample G (odour yes), oral 100 mg 1,8-cineole, values given with (<x) are approximations
# [13] = sample H (odour yes), oral 100 mg 1,8-cineole, values given with (<x) are approximations
# [14] = sample A-1a (no odour), oral 100 mg 1,8-cineole, values given with (<x) lie beyond calibration range, approximation
# [15] = sample D-1 (no odour), oral 100 mg 1,8-cineole, values given with (<x) are approximations
# [16] = sample F (no odour), parent ingested two capsules, values given with (<x) are approximations
# [17] = sample F (no odour), two capsules
"Estimated maximum level in human milk (concentration calculated with the last calibration point, in parentheses) ([3]; sample A-1b (odour yes)) [µg/kg]","Absolute concentration in human milk [3, 5] [µg/kg]","Estimated maximum level in human milk (concentration calculated with the last calibration point, in parentheses) ([3]; sample B-1 (odour yes)) [µg/kg]","Absolute concentration in human milk [3, 6] [µg/kg]","Absolute concentration in human milk [3, 7] [µg/kg]","Absolute concentration in human milk [3, 8] [µg/kg]","Absolute concentration in human milk [3, 9] [µg/kg]","Estimated maximum level in human milk (concentration calculated with the last calibration point, in parentheses) ([3]; sample D-2 (odour yes)) [µg/kg]","Absolute concentration in human milk [3, 10] [µg/kg]","Absolute concentration in human milk [3, 11] [µg/kg]","Absolute concentration in human milk [3, 12] [µg/kg]","Estimated maximum level in human milk (concentration calculated with the last calibration point, in parentheses) ([3]; sample H (odour yes)) [µg/kg]","Absolute concentration in human milk [3, 13] [µg/kg]","Estimated maximum level in human milk (concentration calculated with the last calibration point, in parentheses) ([3]; sample A-1a (no odour)) [µg/kg]","Absolute concentration in human milk [3, 14] [µg/kg]","Absolute concentration in human milk [3, 15] [µg/kg]","Absolute concentration in human milk [3, 16] [µg/kg]","Estimated maximum level in human milk (concentration calculated with the last calibration point, in parentheses) [3, 17] [µg/kg]","Estimated maximum level in human milk (concentration calculated with the last calibration point, in parentheses) ([3]; sample B-2b (odour yes)) [µg/kg]",Structure (SMILES),Presence in human urine [4],also measured
< 1.08,0.46,< 1.57,0.87,0.18,15.52,0.15,< 1.82,0.46,16.95,0.73,< 1.86,1.83,–,–,–,–,–,–,"CC12CCC(CC1)C(C)(CO)O2 (centres unmarked) [9-hydroxy-1,8-cineole]",–,"Percentage E1 ([1]; one of the three samples B-2a): about 80%; Percentage E1 ([1]; the two other samples of B-2a): about 50%; Concentration in plasma [2]: 5.61 ng/mL; Estimated maximum level in human milk (concentration calculated with the last calibration point, in parentheses) ([3]; sample G (odour yes)): < 3.33 µg/kg"
–,4.07,–,13.65,0.07,2.80,0.57,–,5.13,9.63,21.24,–,37.69,< 1.26,0.28,0.45,0.59,< 2.40,–,"CC12C=CC(CC1)C(C)(C)O2 (centres unmarked) [2,3-dehydro-1,8-cineole, 2,3-Dehydro-1,8-cineole]",could not be found,"Percentage E1 in single sample (outlier) ([1]; human milk sample B-2a, excluded from Table 3): 100%; Estimated maximum level in human milk (concentration calculated with the last calibration point, in parentheses) ([3]; sample C (no odour)): < 0.88 µg/kg; Absolute concentration in human milk ([3]; sample C (no odour; very weak odour not caused by 1,8-cineole), oral 100 mg 1,8-cineole, values given with (<x) are approximations): 0.73 µg/kg; Estimated maximum level in human milk (concentration calculated with the last calibration point, in parentheses) ([3]; sample D-1 (no odour)): < 0.97 µg/kg; Estimated maximum level in human milk (concentration calculated with the last calibration point, in parentheses) ([3]; sample E-1 (no odour)): < 1.21 µg/kg; Absolute concentration in human milk ([3]; sample E-1 (no odour), oral 100 mg 1,8-cineole, values given with (<x) are approximations): 0.19 µg/kg"
–,2.48,–,7.65,–,2.18,0.66,–,4.13,4.65,4.52,–,6.82,–,–,1.35,–,–,< 2.45,"CC1(C)OC2(C)CCC1C1OC12 (stereo not drawn) [a2,3-epoxy-1,8-cineole, α2,3-epoxy-1,8-cineole]",could not be found,–
< 1.31,0.53,< 1.89,0.91,–,0.34,0.07,< 2.20,0.85,1.71,–,< 2.24,0.86,< 1.57,0.13,–,2.71,< 3.00,< 2.37,"CC12CCC(CC1=O)C(C)(C)O2 (centres unmarked) [2-oxo-1,8-cineole]",could not be found,"Percentage E2 in single samples (outliers) ([1]; human milk samples B-1, B-2b and B-2c, excluded from Table 3): 100%; Estimated maximum level in human milk (concentration calculated with the last calibration point, in parentheses) ([3]; sample E-2 (odour yes)): < 2.03 µg/kg"

# Reference: PMC3901259, “Characterisation of the Metabolites of 1,8-Cineole Transferred into Human Milk: Concentrations and Ratio of Enantiomers” (Metabolites, 2013)
